Source: PubChem BioAssay AID330 (DTP/NCI, 2004)
“And” between values parts separate entries of the source, which are not always exact repeats. Equal values may be shown once. Toxic doses and inconclusive results are not listed. How the source made its calls: active means survival T/C of 150% or more; inactive means T/C below 125% in these data.

Tested on: P388 leukemia ip, CD2F1 mice, survival T/C
Test: NCI In Vivo Anticancer Drug Screen. Data for tumor model P388 Leukemia (intraperitoneal) in CD2F1 (CDF1) mice
Conditions: endpoint: median survival time, higher = longer survival
Method in brief: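 Mice carrying the transplanted tumor received test compound or vehicle. Survival was recorded in each group, and the value is the treated-group measurement divided by that of the vehicle-treated control group.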

[1] = dose: 60.0 mg/kg/injection, schedule: Q01DX005 (ip), vehicle: Klucel (hydroxypropylcellulose) (HPC)
[2] = dose: 120.0 mg/kg/injection, schedule: Q01DX005 (ip), vehicle: Klucel (hydroxypropylcellulose) (HPC)
[3] = dose: 0.78 mg/kg/injection, schedule: Q01DX009 (ip), vehicle: saline
[4] = dose: 1.56 mg/kg/injection, schedule: Q01DX009 (ip), vehicle: saline
[5] = dose: 50.0 mg/kg/injection, schedule: Q01DX005 (ip), vehicle: saline
[6] = dose: 100.0 mg/kg/injection, schedule: Q01DX005 (ip), vehicle: saline
[7] = dose: 25.0 mg/kg/injection, schedule: Q01DX009 (ip), vehicle: saline with Tween-80
[8] = dose: 50.0 mg/kg/injection, schedule: Q01DX009 (ip), vehicle: saline with Tween-80
[9] = dose: 100.0 mg/kg/injection, schedule: Q01DX009 (ip), vehicle: saline with Tween-80
[10] = dose: 50.0 mg/kg/injection, schedule: Q01DX009 (ip), vehicle: saline
[11] = dose: 100.0 mg/kg/injection, schedule: Q01DX009 (ip), vehicle: saline
[12] = dose: 200.0 mg/kg/injection, schedule: Q01DX009 (ip), vehicle: saline
[13] = dose: 50.0 mg/kg/injection, schedule: Q01DX009 (ip), vehicle: Klucel (hydroxypropylcellulose) (HPC)
[14] = dose: 100.0 mg/kg/injection, schedule: Q01DX009 (ip), vehicle: Klucel (hydroxypropylcellulose) (HPC)
[15] = dose: 200.0 mg/kg/injection, schedule: Q01DX009 (ip), vehicle: Klucel (hydroxypropylcellulose) (HPC)
[16] = dose: 50.0 mg/kg/injection, schedule: Q01DX001 (ip), vehicle: saline
[17] = dose: 200.0 mg/kg/injection, schedule: Q01DX001 (ip), vehicle: saline
[18] = dose: 60.0 mg/kg/injection, schedule: Q01DX005 (ip), vehicle: saline with Tween-80
[19] = dose: 120.0 mg/kg/injection, schedule: Q01DX005 (ip), vehicle: saline with Tween-80
[20] = dose: 240.0 mg/kg/injection, schedule: Q01DX005 (ip), vehicle: saline with Tween-80

Measured: T/C

CN(NC(=O)C(=O)NCc1ccco1)C(=O)NC1CCCCC1
inactive: dose: 50.0 mg/kg/injection, schedule: Q01DX005 (ip), vehicle: Klucel (hydroxypropylcellulose) (HPC) 103 % of control | dose: 100.0 mg/kg/injection, schedule: Q01DX005 (ip), vehicle: Klucel (hydroxypropylcellulose) (HPC) 100 % of control | dose: 200.0 mg/kg/injection, schedule: Q01DX005 (ip), vehicle: Klucel (hydroxypropylcellulose) (HPC) 96 % of control

CC(=O)n1[nH]c(=O)ccc1=O
inactive: dose: 100.0 mg/kg/injection, schedule: Q04DX003 (ip), vehicle: saline 115 % of control | dose: 200.0 mg/kg/injection, schedule: Q04DX003 (ip), vehicle: saline 107 % of control | dose: 400.0 mg/kg/injection, schedule: Q04DX003 (ip), vehicle: saline 115 % of control

CCOc1ccn(CC(=O)N2CCOCC2)c(=O)n1
inactive: dose: 100.0 mg/kg/injection, schedule: Q04DX003 (ip), vehicle: water 90 % of control | dose: 200.0 mg/kg/injection, schedule: Q04DX003 (ip), vehicle: water 100 % of control | dose: 400.0 mg/kg/injection, schedule: Q04DX003 (ip), vehicle: water 90 % of control

Cc1c(NS(=O)(=O)c2ccccc2)c(C)c(NS(=O)(=O)c2ccccc2)c(C)c1NS(=O)(=O)c1ccccc1
inactive: dose: 50.0 mg/kg/injection, schedule: Q04DX003 (ip), vehicle: saline with Tween-80 100 % of control | dose: 100.0 mg/kg/injection, schedule: Q04DX003 (ip), vehicle: saline with Tween-80 90 % of control | dose: 200.0 mg/kg/injection, schedule: Q04DX003 (ip), vehicle: saline with Tween-80 90 % of control

COc1ccc(S(=O)(=O)F)cc1NC(C)=O
inactive: [1] 105 % of control | [2] 101 % of control

NC(=S)C(Cl)(Cl)Cl
inactive: dose: 50.0 mg/kg/injection, schedule: Q01DX005 (ip), vehicle: saline + Tween-80 + alcohol 116 % of control | dose: 100.0 mg/kg/injection, schedule: Q01DX005 (ip), vehicle: saline + Tween-80 + alcohol 119 % of control | dose: 200.0 mg/kg/injection, schedule: Q01DX005 (ip), vehicle: saline + Tween-80 + alcohol 113 % of control

C/C=C/C[P+](Cc1ccccc1)(c1ccccc1)c1ccccc1
inactive: [3] 105 % of control | [4] 113 % of control | dose: 3.13 mg/kg/injection, schedule: Q01DX009 (ip), vehicle: saline 107 % of control

Cc1cc(C2CCCCC2)n(O)c(=O)c1
inactive: dose: 25.0 mg/kg/injection, schedule: Q01DX005 (ip), vehicle: saline 100 % of control | [5] 99 % of control | [6] 106 % of control

O=Cc1ccc([N+](=O)[O-])[nH]1
inactive: dose: 12.5 mg/kg/injection, schedule: Q01DX009 (ip), vehicle: saline with Tween-80 92 % of control | [7] 87 % of control | [8] 92 % of control | [9] 86 % of control

COc1cc2c(cc1OC)C1C(O)C(OC)C=C3CCN(C2)C31 (stereo not given)
inactive: [7] 114 % of control | [8] 114 % of control | [10] 93 % of control | [9] 118 % of control | [11] 119 % of control | [12] 102 % of control

CC1=C(C(=O)Nc2ccccc2C)C(c2cccc([N+](=O)[O-])c2)C(C(=O)Nc2ccccc2C)=C(C)N1
inactive: dose: 15.0 mg/kg/injection, schedule: Q01DX005 (ip), vehicle: Klucel (hydroxypropylcellulose) (HPC) 102 % of control | dose: 30.0 mg/kg/injection, schedule: Q01DX005 (ip), vehicle: Klucel (hydroxypropylcellulose) (HPC) 93 % of control | [1] 88 % of control and 97 % of control

OCC1CSCN1 (stereo not given)
inactive: dose: 50.0 mg/kg/injection, schedule: Q04DX002 (ip), vehicle: saline 93 % of control | dose: 100.0 mg/kg/injection, schedule: Q04DX002 (ip), vehicle: saline 99 % of control and 101 % of control | dose: 200.0 mg/kg/injection, schedule: Q04DX002 (ip), vehicle: saline 101 % of control and 120 % of control | dose: 400.0 mg/kg/injection, schedule: Q04DX002 (ip), vehicle: saline 101 % of control and 104 % of control

CC(=O)Oc1ccc2c3c1O[C@H]1[C@@H](OC(C)=O)C=C[C@H]4[C@@H](C2)N(C)CC[C@@]341
inactive: dose: 0.39 mg/kg/injection, schedule: Q01DX009 (ip), vehicle: saline 100 % of control | [3] 101 % of control | [4] 94 % of control | dose: 3.12 mg/kg/injection, schedule: Q01DX009 (ip), vehicle: saline 95 % of control | dose: 6.25 mg/kg/injection, schedule: Q01DX009 (ip), vehicle: saline 100 % of control | dose: 12.5 mg/kg/injection, schedule: Q01DX009 (ip), vehicle: saline 110 % of control | dose: 25.0 mg/kg/injection, schedule: Q01DX009 (ip), vehicle: saline 100 % of control | [10] 108 % of control | [11] 117 % of control | [12] 110 % of control

COC(=O)c1ccc(C(=O)OC)c2nc3ccccc3nc12
inactive: [1] 97 % of control | [2] 100 % of control

O=C1CN=CN1
inactive: dose: 60.0 mg/kg/injection, schedule: Q01DX005 (ip), vehicle: saline 96 % of control | dose: 120.0 mg/kg/injection, schedule: Q01DX005 (ip), vehicle: saline 96 % of control | dose: 240.0 mg/kg/injection, schedule: Q01DX005 (ip), vehicle: saline 102 % of control

O=C(O)c1cc(-c2ccc(Cl)cc2)nc2c(-c3ccccc3)cccc12
inactive: [8] 91 % of control | [9] 103 % of control | dose: 200.0 mg/kg/injection, schedule: Q01DX009 (ip), vehicle: saline with Tween-80 104 % of control

COC(=O)CC1(C(=O)OC)c2sc(-c3ccccc3)c(-c3ccccc3)c2N2CCCC21 (stereo not given)
inactive: dose: 11.25 mg/kg/injection, schedule: Q01DX009 (ip), vehicle: Klucel (hydroxypropylcellulose) (HPC) 97 % of control | dose: 22.5 mg/kg/injection, schedule: Q01DX009 (ip), vehicle: Klucel (hydroxypropylcellulose) (HPC) 97 % of control | dose: 45.0 mg/kg/injection, schedule: Q01DX009 (ip), vehicle: Klucel (hydroxypropylcellulose) (HPC) 97 % of control

CCOC(=O)CNC(=O)NC(Cc1ccccc1)C(=O)OCC (stereo not given)
inactive: dose: 50.0 mg/kg/injection, schedule: Q01DX005 (ip), vehicle: saline with Tween-80 107 % of control | dose: 100.0 mg/kg/injection, schedule: Q01DX005 (ip), vehicle: saline with Tween-80 97 % of control

CCNC(=O)C#CC(=O)NCC
inactive: [13] 92 % of control | [14] 92 % of control | [15] 95 % of control

CCN(CC)CCSc1nnc(N)s1
inactive: [16] 103 % of control | dose: 100.0 mg/kg/injection, schedule: Q01DX001 (ip), vehicle: saline 103 % of control | [17] 99 % of control

Nc1ncnc2c1CCc1ccccc1-2
inactive: dose: 100.0 mg/kg/injection, schedule: Q04DX002 (ip), vehicle: saline with Tween-80 107 % of control | dose: 200.0 mg/kg/injection, schedule: Q04DX002 (ip), vehicle: saline with Tween-80 112 % of control

O=C(Nc1ccccc1Cl)OCC(CCl)(CCl)CCl
inactive: [13] 100 % of control | [14] 106 % of control | [15] 95 % of control

ClCC1CCNCC1
inactive: [10] 100 % of control | [11] 100 % of control | [12] 99 % of control

OCCCC1CCCCN1 (stereo not given)
inactive: [16] 107 % of control | [17] 100 % of control

O=[N+]([O-])c1c(NC2(CO)CCCC2)ncnc1NC1(CO)CCCC1
inactive: dose: 65.5 mg/kg/injection, schedule: Q04DX003 (ip), vehicle: Klucel (hydroxypropylcellulose) (HPC) 97 % of control | dose: 131.0 mg/kg/injection, schedule: Q04DX003 (ip), vehicle: Klucel (hydroxypropylcellulose) (HPC) 105 % of control | dose: 262.0 mg/kg/injection, schedule: Q04DX003 (ip), vehicle: Klucel (hydroxypropylcellulose) (HPC) 102 % of control

CCN(CC)CCOc1ccc(/C=C(\C)C(C)=O)cc1
inactive: [5] 94 % of control | [6] 90 % of control

O/N=C(/c1ccccc1)n1nnc2ccccc21
inactive: [18] 118 % of control | [19] 106 % of control | [20] 105 % of control

CN(Nc1ccnc(=O)[nH]1)c1ccccc1
inactive: [18] 105 % of control | [19] 102 % of control | [20] 93 % of control
